# US20240093259A1, “METHODS TO STABILIZE MAMMALIAN CELLS” (THE REGENTS OF THE UNIVERSITY OF CALIFORNIA, priority 2019, published 2024)
# Assays:
# Assay type in all cases: cell-based, Chinese hamster
# CHO-SEAP cells = experiment: Long-term culture SEAP titer (SEAP reporter assay); details: CHO-SEAP cells under constant 5 μM MTX supplementation, 48 passages
# Method: Cells were cultured in triplicates on 6-well plates. All cells were treated with 5 μM methotrexate (MTX) (MilliporeSigma) for 2 weeks at the beginning of the study (P0-P7) after which only one triplicate per genotype was continued under MTX until the rest of the study. Cells were cultured for 48 passages in total, with 3 passages/week. […]. Protein titer was measured at P0, P7, and P48 using a SEAP reporter assay (Applied Biosystems, ThermoFisher).
# To finally investigate whether DNA-repair optimization has beneficial effects on transgene expression, we grew CHO-SEAP WT and CHO-SEAP CMV::XRCC6 alongside in a long-term culture experiment, and compared SEAP titer at the beginning and the end. Prior to the start of the experiment, cells were cultured in 5 uM methotrexate (MTX) for 1 week to select for high SEAP expression, after which MTX was taken off the growth medium in half of the samples (FIG. 9c). MTX is a competitive inhibitor of dihydrofolate reductase, an essential metabolic enzyme, which is co-expressed with the transgenic SEAP locus (FIG. 9b).
# CHO-K1 cells [1] = experiment: Karyotype analysis after long-term culture (multi-color FISH chromosome painting); details: wild-type CHO-K1 cultured under permanent supplementation, 60 passages
# Method: Metaphase spreads were prepared as previously described. Samples were labeled with multi-color DNA fluorescence in situ hybridization (FISH) probes (12× CHamster mFISH probe kit, MetaSystems) for spectral karyotyping as previously described. For karyotypic analyses, the most abundant karyotype across samples was defined as the representative (“main”) karyotype, and deviations from this karyotype were scored as a numerical alteration (whole-chromosomal aneuploidy) and/or structural alteration (inter-chromosomal rearrangement, visible deletion). Structurally aberrant karyotypes (FIG. 8b) were defined as karyotypes showing at least one structural deviation from the representative karyotype. Since unrepaired DSBs can lead to chromosomal aberrations, as mentioned above, we prepared karyotype samples of wildtype and engineered cell lines to analyze chromosomal aberrations on the single cell level. For this, both ATM+ and ATM+ PRKDC+ cell lines were cultured in parallel to the parental wildtype clone for a total of 60 passages (approx. 120 doublings) after which cells were arrested in mitosis, metaphase chromosomal spreads were prepared and stained with chromosome-specific probes (“chromosome painting”) to detect structural and numerical variations. […]
# CHO-K1 cells [2] = experiment: EJ5-GFP double-strand break (DSB) reporter flow cytometry assay in CHO-K1
# Description: FIGS. 2A-2B show GFP-based double-strand break (DSB) reporter system. […] The spacer prevents the promoter from driving GFP expression. Step 2: Transient transfection with the DSB-inducing plasmid (B) induces two DSBs at the 5′ and 3′ ends of the spacer. Successfully transfected cells are identified through far-red fluorescence from miRFP670, fused to Cas9 (B). Step 3: Transfected cells that repair both DSBs properly keep the spacer in place and thus remain GFP-negative. Transfected cells that fail to repair both DSBs in time produce a large sequence loss, moving the GFP in proximity to the promoter, resulting in GFP expression. Thus, the fraction of GFP-positive cells among all transfected cells (far-red positive) serves as a read-out for the inefficiency of DSB repair. […]
# The invention provides a tool to quantify double-strand break (DSB) repair in CHO. […] This reporter system comprises a GFP reading frame, separated from its promoter with a large (2 kb) spacer (FIG. 2A). […] Thus, this tool allows quantitative detection of DSB repair efficiency in living cells and is a powerful read-out for how restoration of individual DSB repair genes improves chromosome stability.
# The EJ5-GFP reporter plasmid (addgene #44026) was linearized with XhoI and transfected into CHO-K1 and CHO-SEAP using electroporation (Neon, Thermo Fisher). […] Impaired DSB repair is detected by positive GFP expression. […]
Compound,SEAP titer at end of long-term culture (CHO-SEAP cells),structural abnormalities in karyotype (CHO-K1 cells [1]),"fraction of GFP+ cells (inefficiency of DSB repair) (CHO-K1 cells [2]; CHO-K1 carrying GFP reporter, DSB-inducer transfection, ATM inhibitor 3 μM, FACS 24h after transfection)","GFP+ positive cells (compromised DSB repair) (CHO-K1 cells [2]; CHO-K1 wildtype carrying EJ5-GFP, DSB-inducing plasmid, vs DMSO (Example 2, FIG. 5c))"
"CN(Cc1cnc2nc(N)nc(N)c2n1)c1ccc(C(=O)N[C@@H](CCC(=O)O)C(=O)O)cc1 [MTX, methotrexate]",no reduction in SEAP titer,,,
C[C@@H]1CN(CC(=O)Nc2ccc3c(c2)Cc2cccc(-c4cc(=O)cc(N5CCOCC5)o4)c2S3)C[C@H](C)O1 [KU-60019],,massive increase in structural abnormalities,increases the fraction of GFP+ cells,significant increase in GFP+ positive cells
